# In publication PMC8414367, “(E)-7-Ethylidene-lithocholic Acid (7-ELCA) Is a Potent Dual Farnesoid X Receptor (FXR) Antagonist and GPBAR1 Agonist Inhibiting FXR-Induced Gene Expression in Hepatocytes and Stimulating Glucagon-like Peptide-1 Secretion From Enteroendocrine Cells” (Frontiers in Pharmacology, 2021):
# Like-named read-outs stand apart in the source and are kept apart here.
# What was measured:
# human FXR [1] = target: T1, human FXR (Homo sapiens, UniProt Q96RI1); assay: FXR luciferase reporter gene assay (FXRE-luc) in HepG2 cells, antagonistic mode; format: cell-based; conditions: for remaining activity at 10 µM / remaining activity at 40 µM: HepG2; for remaining activity at 10 µM: tested compound 10 µM
# T1 sequence (Q96RI1 1-486): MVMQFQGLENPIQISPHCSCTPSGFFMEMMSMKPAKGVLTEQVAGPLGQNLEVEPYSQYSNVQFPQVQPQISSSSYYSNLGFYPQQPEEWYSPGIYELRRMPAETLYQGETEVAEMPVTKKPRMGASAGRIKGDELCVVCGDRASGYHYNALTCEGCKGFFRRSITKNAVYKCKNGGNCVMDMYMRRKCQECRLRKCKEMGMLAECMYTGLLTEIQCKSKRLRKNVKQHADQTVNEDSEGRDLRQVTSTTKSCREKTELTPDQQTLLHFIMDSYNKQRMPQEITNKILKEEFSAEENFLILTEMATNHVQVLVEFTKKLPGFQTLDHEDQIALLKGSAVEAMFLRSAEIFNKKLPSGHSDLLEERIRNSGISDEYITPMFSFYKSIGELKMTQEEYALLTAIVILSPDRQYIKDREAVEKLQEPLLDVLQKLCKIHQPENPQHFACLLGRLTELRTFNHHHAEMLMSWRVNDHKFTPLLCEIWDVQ
# T1 sequence (P19793 1-462 partner): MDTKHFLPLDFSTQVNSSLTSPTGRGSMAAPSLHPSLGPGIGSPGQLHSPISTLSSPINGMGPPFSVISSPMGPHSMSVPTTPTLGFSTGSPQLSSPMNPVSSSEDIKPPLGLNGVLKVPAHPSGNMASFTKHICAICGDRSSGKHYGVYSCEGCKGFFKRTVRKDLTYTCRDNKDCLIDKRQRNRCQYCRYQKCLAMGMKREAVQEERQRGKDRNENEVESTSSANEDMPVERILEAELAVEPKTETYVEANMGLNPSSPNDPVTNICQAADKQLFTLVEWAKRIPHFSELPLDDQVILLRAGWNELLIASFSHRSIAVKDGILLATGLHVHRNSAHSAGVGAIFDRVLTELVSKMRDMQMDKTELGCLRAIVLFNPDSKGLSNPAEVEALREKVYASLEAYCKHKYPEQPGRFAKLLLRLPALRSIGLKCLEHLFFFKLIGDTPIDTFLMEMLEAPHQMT
# human FXR [2] = target: T1, human FXR; assay: FXR luciferase reporter gene assay (FXRE-luc) in HepG2 cells, agonistic mode; format: cell-based; conditions: 10 µM, 24 h, compound alone
# Method: FIGURE 3 Interaction of 7-alkylated derivatives of CDCA and 7-ELCA with human FXR in luciferase reporter gene assays. HepG2 cells were transiently co-transfected with the luciferase FXRE-luc construct and with expression pSG5-hFXR, pSG5-hRXRα, and pRL-TK vectors. Cells were treated with indicated concentrations for 24 h alone (A), an agonistic mode) or with 1 µM OCA as an FXR agonist (B–F), an antagonistic mode). […] IC50 values were calculated using concentration-response curves nonlinear fitting in GraphPad software.
# GPBAR1 = target: T2, GPBAR1 (Homo sapiens, UniProt Q8TDU6); assay: GPBAR1 CRE-luc luciferase reporter assay in HepG2 cells; format: cell-based; conditions: 10 µM, 5 h, LCA 10 µM set as 100%
# T2 construct: host or cells: HepG2
# T2 sequence (Q8TDU6 1-330): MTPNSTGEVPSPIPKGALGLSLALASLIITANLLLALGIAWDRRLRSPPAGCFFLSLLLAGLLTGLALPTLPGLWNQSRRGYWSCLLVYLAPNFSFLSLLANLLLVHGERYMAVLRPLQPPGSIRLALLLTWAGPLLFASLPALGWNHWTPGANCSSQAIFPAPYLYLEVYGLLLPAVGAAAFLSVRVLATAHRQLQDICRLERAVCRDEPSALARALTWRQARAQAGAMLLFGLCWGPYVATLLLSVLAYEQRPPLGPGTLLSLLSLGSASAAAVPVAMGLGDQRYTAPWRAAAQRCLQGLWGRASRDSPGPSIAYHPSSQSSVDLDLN
# Method: (C) Effects of LCA and 7-ELCA (both at 10 µM) on intracellular generation of cAMP in differentiated NCI-H716 cells after 30 min treatment. The increase in cAMP level (ΔcAMP) is presented as the difference between cAMP concertation in the treated sample after subtraction of the cAMP in the nontreated control sample. (D) Concentration-response curves for activation of GPBAR1 by LCA and 7-ELCA. EC50 values were calculated using nonlinear fitting of concentration-response curves. […] GLP-1 was normalized to protein concentration and GPBAR1 mRNA expression to GAPDH mRNA. Data are presented as a fold to control nontreated (NT) samples. Forskolin (FSK, 10 µM) was used as a GPBAR1-independent activator of cAMP production.
# MTS viability assay [3] = format: cell-based, human; conditions: human, vehicle = 100%
# Method: (§1) The potential cytotoxicity of 7-alkylated chenodeoxycholic acid derivatives were assessed in different human (HepG2, HepaRG and Huh7) and murine (AML12) hepatocyte-derived cell lines. For this purpose, hepatic cells were treated at increasing concentration for 24h and analyzed by MTS viability assay.
# (§2) Table S2. Cell viability was determined using the Cell Titer 96 Aqueous One Solution Cell Proliferation Assay (MTS assay) after treatment with test compounds for 24 h in four different hepatic cell lines. Vehicle (0.1% DMSO) and background (10% SDS; v/v, toxic control) controls of cell viability were set to be 100% and 0%, respectively.
# HepG2 = assay: MTS viability assay; format: cell-based, human; conditions: Homo sapiens; HepG2, 24 h, MTS; read-out: IC50 (µM), cell viability
# Method: as §1, §2
# HepaRG = assay: MTS viability assay; format: cell-based, human; conditions: Homo sapiens, 24 h, MTS, read-out: IC50 (µM), cell viability
# Method: as §1, §2
# Huh7 = assay: MTS viability assay; format: cell-based, human; conditions: Homo sapiens, Huh-7; Huh7, 24 h, MTS; read-out: IC50 (µM), cell viability
# Method: as §1, §2
# MTS viability assay [4] = format: cell-based, murine; conditions: mouse, AML12 cells; AML12, 24 h, vehicle = 100%
# Method: as §1, §2
# AML12 = assay: MTS viability assay; format: cell-based, murine; conditions: Mus musculus; AML12, 24 h, MTS; read-out: IC50 (µM), cell viability
# Method: as §1, §2
# various cell lines = assay: MTS viability assay, summary over cell lines; format: cell-based; conditions: 24 h, read-out: IC50, cellular viability
# Method: as §1, §2
# FXR [5] = tested on: FXR; design: method as in Sun et al., 2018; conditions: ref Sun et al., 2018; read-out: IC50, FXR antagonist; cited from earlier work
# NCI-H716 cells = assay: GLP-1 secretion (ELISA) in differentiated NCI-H716 cells; format: cell-based, human; conditions: 10 µM, 2 h
# [6] = tested on: GPBAR1 mRNA, NCI-H716 cells; assay: GPBAR1 mRNA expression in differentiated NCI-H716 cells; format: cell-based, human; conditions: 10 µM, 2 h
# Method: FIGURE 8 Effects of 7-alkylated derivatives of CDCA and 7-ELCA on the membrane receptor GPBAR1. […]. (B) CRE-luc activation depends on the presence of GPBAR1. (C) Effects of LCA and 7-ELCA (both at 10 µM) on intracellular generation of cAMP in differentiated NCI-H716 cells after 30 min treatment. The increase in cAMP level (ΔcAMP) is presented as the difference between cAMP concertation in the treated sample after subtraction of the cAMP in the nontreated control sample. (D) Concentration-response curves for activation of GPBAR1 by LCA and 7-ELCA. EC50 values were calculated using nonlinear fitting of concentration-response curves. […] (G) 7-ELCA (10 µM) increases GLP-1 secretion in siRNA control but not in siRNA Gpbar1 transfected GLUTag cells after 1 h treatment. GLP-1 was normalized to protein concentration and GPBAR1 mRNA expression to GAPDH mRNA. Data are presented as a fold to control nontreated (NT) samples. Forskolin (FSK, 10 µM) was used as a GPBAR1-independent activator of cAMP production.
# FXR [7] = tested on: FXR; design: method as in Li et al., 2013; Sayin et al., 2013; conditions: co-activator assay, ref Li et al., 2013, Sayin et al., read-out: IC50, FXR antagonist; cited from earlier work
# [8] = GW4064 1 µM, read-out: relative response (%) to the model FXR ligand activation (set to be 100%), GW4064 1 µM
smiles,measurement,setting,value
"C[C@H](CCC(=O)O)[C@H]1CCC2C3C(CC[C@@]21C)[C@@]1(C)CC[C@@H](O)C[C@H]1C[C@]3(O)C1CC1 (stereo partly drawn) [2i, 3α,7α-Dihydroxy-7β-cyclopropyl-5β-cholan-24-oic acid]",remaining activity at 10 µM,human FXR [1]; [8],88.4 ± 4.2%
same,remaining activity at 40 µM,"human FXR [1]; tested compound 40 µM, CDCA 20 µM, * = significant effect on cellular viability, read-out: relative response (%) to the model FXR ligand activation (set to be 100%), CDCA 20 µM",60 ± 5.8%
same,remaining activity at 40 µM,"human FXR [1]; tested compound 40 µM, GW4064 1 µM, * = significant effect on cellular viability, read-out: relative response (%) to the model FXR ligand activation (set to be 100%), GW4064 1 µM",60.5 ± 5.2%
same,"FXR activation, agonistic mode (in words)",human FXR [2],significant inhibition of the FXR basal activation
same,CRE-luc activation compared to LCA (in words),GPBAR1,comparable activities to LCA
same,"viability at 24 h, 10 µM","MTS viability assay [3]; HepG2 cells, HepG2, 24 h",90.9 ± 0.9%
same,"viability at 24 h, 10 µM",MTS viability assay [3]; HepaRG cells,133 ± 12.2%
same,"viability at 24 h, 10 µM","MTS viability assay [3]; Huh7 cells, Huh7, 24 h",97.9 ± 10.4%
same,IC50,HepG2,178.4 ± 1 µM
same,IC50,HepaRG,> 200 µM
same,IC50,Huh7,> 200 µM
same,"viability at 24 h, 10 µM",MTS viability assay [4],108 ± 3.2%
same,IC50,AML12,> 200 µM
same,melting point,,78 to 82 °C
"CCCCCCCCC[C@@]1(O)C[C@@H]2C[C@H](O)CC[C@]2(C)C2CC[C@@]3(C)C(CC[C@@H]3[C@H](C)CCC(=O)O)C21 (stereo partly drawn) [2k, 3α,7α-Dihydroxy-7β-nonyl-5β-cholan-24-oic acid]",remaining activity at 10 µM,human FXR [1]; [8],84.8 ± 1.8%
same,"FXR activation, agonistic mode (in words)",human FXR [2],significant inhibition of the FXR basal activation
same,CRE-luc activation compared to LCA (in words),GPBAR1,weak or no ability to act as agonists of GPBAR1
same,"viability at 24 h, 10 µM","MTS viability assay [3]; HepG2 cells, HepG2, 24 h",79.8 ± 2.5%
same,"viability at 24 h, 10 µM",MTS viability assay [3]; HepaRG cells,71.6 ± 2.8%
same,"viability at 24 h, 10 µM","MTS viability assay [3]; Huh7 cells, Huh7, 24 h",118 ± 4.9%
same,IC50,HepG2,~10.9 µM
same,IC50,HepaRG,18.9 µM
same,IC50,Huh7,21.8 µM
same,"viability at 24 h, 10 µM",MTS viability assay [4],68 ± 1.4%
same,IC50,AML12,12.5 µM
same,IC50,various cell lines,~15 µM
same,melting point,,78 to 80 °C
C[C@H](CCC(=O)NCC(=O)O)[C@H]1CC[C@H]2[C@@H]3[C@@H](O)C[C@@H]4C[C@H](O)CC[C@]4(C)[C@H]3CC[C@]12C [GUDCA],IC50,FXR [5],77.2 µM
"C[C@H](CCC(=O)O)[C@H]1CC[C@H]2[C@@H]3CC[C@@H]4C[C@H](O)CC[C@]4(C)[C@H]3CC[C@]12C [LCA, 3α-hydroxy-5β-cholan-24-oic acid, reference compound]",GLP-1 secretion,NCI-H716 cells,stimulate GLP-1 secretion
same,GPBAR1 mRNA expression,[6],stimulate
"C[C@H](CCC(=O)NCCS(=O)(=O)O)[C@H]1CC[C@H]2[C@@H]3[C@@H](O)C[C@@H]4C[C@H](O)CC[C@]4(C)[C@H]3CC[C@]12C [TUDCA, tauro-ursodeoxycholic acid]",IC50,FXR [5],75.1 µM
"C[C@H](CCC(=O)NCCS(=O)(=O)O)[C@H]1CC[C@H]2[C@@H]3[C@@H](O)[C@@H](O)[C@@H]4C[C@H](O)CC[C@]4(C)[C@H]3CC[C@]12C [Tβ-MCA, tauro-β-muricholic acid, reference compound]",inhibition of FXR activation,"human FXR [1]; at 100 µM, with 1 µM OCA",15%
same,"relative response (%) to the model FXR ligand activation (set to be 100%), CDCA 20 µM","human FXR [1]; tested compound 40 µM, CDCA 20 µM, * = significant effect on cellular viability",95.0±5.7%
same,"relative response (%) to the model FXR ligand activation (set to be 100%), GW4064 1 µM","human FXR [1]; tested compound 40 µM, GW4064 1 µM, * = significant effect on cellular viability",84.8±6.2%
same,IC50,FXR [7],40 µM
C[C@H](CCC(=O)NCCS(=O)(=O)O)[C@H]1CC[C@H]2[C@@H]3[C@H](O)[C@@H](O)[C@@H]4C[C@H](O)CC[C@]4(C)[C@H]3CC[C@]12C [tauro-α-MCA],IC50,FXR [7],28 µM
